# Assay results taken from patent US20240043528A1, “NANOBODY-OGA FUSIONS AND USES THEREOF” (President and Fellows of Harvard College, priority 2020, published 2024).
# Entries after “also recorded” stand apart in the source; their conditions may differ.
# Key:
# Type in all cases: cell-based, human
# c-Fos-Ubc-Flag-EPEA = assay: Deglycosylation of c-Fos-Ubc-Flag-EPEA (anti-EPEA enrichment, anti-O-GlcNAc immunoblot); settings: HEK 293T cells
# Protocol: For immunoprecipitation of proteins with the C-terminal EPEA tag, cell lysates with equal amounts of protein were diluted with PBS and incubated with C-tag affinity matrix (Thermo Scientific) for 1 h at room temperature, with end-to-end rotation, following the manufacturer's instructions. After washing three times with PBS buffer, the enriched proteins were eluted with SDS sample buffer and subjected to SDS-PAGE.
# For immunoblotting analysis, proteins were transferred to a nitrocellulose membrane using iBlot (Thermo Scientific). […] All IR fluorescence western blot images are converted into grayscale images by Fiji ImageJ. The unsaturated exposure of immunoblot images was used for quantification with the appropriate loading controls as standards. […]
# The ability of nUbc-split OGA to selectively remove an O-GlcNAc modification from Ubc-tagged c-Fos was examined. c-Fos is a core component of the AP-1 transcription factor complex, which will dimerize with c-Jun and drive downstream transcription (Hess, J., Angel, P. & Schorpp-Kistner, M. AP-1 subunits: quarrel and harmony among siblings. J. Cell Sci. 2004, 117, 5965-73). […] The O-GlcNAc modification level was evaluated by immunoblotting with an anti-O-GlcNAc antibody (FIG. 4C). Ratios were quantified from the protein level and O-GlcNAc level.
# global O-GlcNAcylation = assay: Global O-GlcNAcylation level in whole cell lysate, anti-O-GlcNAc (RL2) immunoblot; settings: HEK 293T whole cell lysate, OSMI-4b 25 μM for 30 h
# Protocol: After 36-48 h of transfection, cells were harvested and washed with PBS once. Cells were lysed with M-PER lysis buffer containing 1× protease inhibitor cocktail and 10 μM Thiamet-G unless otherwise noted. Protein concentrations were determined by the BCA assay kit (G-Biosciences, 786) on a multi-mode microplate reader FilterMax F3 (Molecular Devices LLC, Sunnyvale, CA).
# For immunoblotting analysis, proteins were transferred to a nitrocellulose membrane using iBlot (Thermo Scientific). Membranes were blocked with Tris buffered saline containing 0.1% Tween-20 and 5% BSA and incubated with the primary antibodies (1:1000 dilution) and the secondary antibodies (1:10,000 dilution) sequentially. Immunoblot images were captured by Azure Imager C600. Analysis of immunoblots was conducted with Fiji ImageJ. All IR fluorescence western blot images are converted into grayscale images by Fiji ImageJ. The unsaturated exposure of immunoblot images was used for quantification with the appropriate loading controls as standards. Statistical analysis of the data was performed with Prism 8, using data from at least three independent experiments.
# endogenous c-Jun = assay: O-GlcNAcylation status of endogenous c-Jun (chemoenzymatic labeling, Biotin-IP); settings: HEK 293T cells expressing c-Fos-Ubc
# Protocol: Purification of GalT1 (Y289L) enzyme and labeling of O-GlcNAcylated proteins with GalNAz were performed according to the procedure of Hsieh-Wilson and co-workers (Thompson, J. W., Griffin, M. E. & Hsieh-Wilson, L. C. Methods for the Detection, Study, and Dynamic Profiling of O-GlcNAc Glycosylation. Methods Enzymol. 2018, 598, 101-135). Briefly, cell samples in 6-well plates or 15-cm dishes were harvested and washed by PBS once. The lysis buffer (PBS with 2% SDS) was added into cell pellets and heated for 5 min at 95° C., followed by the sonication to sheer DNA. Protein concentrations were determined by BCA assay. Cell lysates were reduced and alkylated with 25 mM DTT at 95° C. for 5 min and 50 mM iodoacetamide at room temperature for 1 h respectively. Proteins were precipitated by the methanol/chloroform solution (aqueous phase:CH3OH:CHCl3=4:4:1) and resuspended in 1% SDS, 20 mM HEPES (pH 7.9) buffer with a concentration of 3.75 mg/mL. For 150 μg proteins, H2O (49 μL), 2.5×GalT labeling buffer (80 μL, final concentrations: 50 mM NaCl, 20 mM HEPES, 2% NP-40, pH 7.9), 100 mM MnCl2 (11 μL), 500 μM UDP-GalNAz (10 μL), 2 mg/mL GalT1 (Y289L) (10 μL) were added into cell lysates orderly. The reaction was gently rotated at 4° C. for at least 20 h and the proteins were precipitated as described above. The proteins were resuspended with 1% SDS, PBS for the further click chemistry. […]
# [1] = system: AP-1 transcriptional activity; assay: AP-1 responsive luciferase reporter assay in c-Fos-Ubc co-transfected HEK 293T cells; settings: c-Fos-Ubc-Flag-EPEA co-transfected HEK 293T cells, 48 h; OSMI-4b 25 μM
# Protocol: For luciferase assay in the OGT inhibition experiment, HEK 293T cells co-transfected with c-Fos-Ubc-Flag-EPEA plasmid and AP-1 responsive luciferase reporter were treated with either DMSO or 25 μM OSMI-4b for 48 h before luciferase activity detection. […] Luciferase reporter assays were performed using Luciferase Assay System (Promega, E1500) according to manufacturer's protocols. At least three independent biological replicates were run using this assay.
# GFP-c-Jun = assay: Cycloheximide (CHX) chase of GFP-c-Jun stability; settings: 50 μM CHX for up to 12 h, HEK 293T cells
# Protocol: HEK 293T cells were transiently transfected with indicated plasmids and treated with DMSO, or Ac45SGlcNAc, or Thiamet-G at the same time if needed. 36-48 h after the transfection, cells were incubated with 50 μM CHX for up to 12 h. At the indicated time points, cells were harvested and lysed with M-PER lysis buffer. Protein expression and global O-GlcNAc level were determined by immunoblot assays. GAPDH protein level was used as the internal loading control.
Molecule,O-GlcNAc modification level on c-Fos-Ubc (c-Fos-Ubc-Flag-EPEA),global O-GlcNAcylation level (global O-GlcNAcylation),global O-GlcNAcylation level (global O-GlcNAcylation; listed as OSMI-4b9),O-GlcNAc modification on endogenous c-Jun (endogenous c-Jun),AP-1 transcriptional activity (luciferase) [1],stability / degradation of GFP-c-Jun (GFP-c-Jun)
OSMI-4b,deglycosylated,dramatic reduction of global O-GlcNAcylation level,dramatic reduction,reduced O-GlcNAc modification,significantly upregulated,–
CCN=C1N[C@@H]2[C@@H](O)[C@H](O)[C@@H](CO)O[C@@H]2S1 [Thiamet-G],–,–,–,–,–,attenuated; also recorded: enhanced
